Assay results: article PMC10714400, “Antimicrobial Peptide–Peptoid Hybrids with and without Membrane Disruption” (ACS Infectious Diseases, 2023)
Read-outs that look alike come from different tables or passages of the source.

Assays:
P. aeruginosa PAO1 [1] = test: Bacterial count after treatment, before TEM sample preparation; format: cell-based, Pseudomonas aeruginosa; details: P. aeruginosa PAO1, […] MH pH 8.5, 10x MIC
Procedure: (§1) Just before the samples were further prepared for the microscopy, surviving bacteria were quantified by plating 10-fold dilutions of samples in sterilized normal saline (NaCl 0.9%) on LB agar plates. […] The assay was performed in triplicate. Each bacteria sample was centrifuged at 12,000 rpm for 3 min, and the supernatant was discarded. The samples were then further processed and imaged using our previously described protocol.[64]
8. Transmission electron microscopy (TEM)
Table S4: Bacterial counts, 2 hours after treatment, before TEM sample preparation. Data represents triplicates.
Bacteria count after treatment at 10x MIC and 2 h of incubation at 37 °C
Control (non-treated cells) 1 × 10^8 CFU (100)

B. cenocepacia = details: MH pH 7.4, 16–20 h at 37 °C
Procedure: (§2) Antimicrobial activity was assayed for all the peptide–peptoids against P. aeruginosa PAO1, K. pneumoniae NCTC418, E. coli W3110, A. baumannii ATCC 19606, methicillin-resistant S. aureus COL (MRSA), and for selected peptides on P. aeruginosa PA14 and the polymyxin-B-resistant derivatives PA14 4.13, PA14 4.18, PA14 2P4, as well as the clinical isolates ZEM-1A and ZEM9A, K. pneumoniae OXA-48, S. aureus Newman, Enterobacter cloacae, Stenotrophomonas maltophilia, Burkholderia cenocepacia, and Staphylococus epidermidis. To determine the Minimal Inhibitory Concentration (MIC), the Broth Microdilution method was used.[72] A colony of bacteria was picked and grown in LB medium overnight at 37 °C.
(§3) To each well was finally added 4 μL of the diluted bacterial suspension (see above), corresponding to approximately 5 × 10^5 CFU. For each test, two columns of the plate were kept for sterility control (medium only), growth control (medium with bacterial inoculum, no compound). The positive control, Polymyxin B (starting with a concentration of 16 μg/mL) in MH medium with bacterial inocula, was introduced in the two lines of the plate. […] Next, 15 μL of 3-(4,5-dimethylthiazol-2-yl)-2,5-diphenyltetrazolium bromide (MTT)[73] (1 mg/mL in sterilized MilliQ deionized water) were added to each well, and the plates were incubated for 20–30 min at room temperature. The minimal inhibitory concentration (MIC) was defined as the lowest concentration of the compound that inhibits the visible growth of the tested bacteria (yellow) with the unaided eye.

S. epidermis = test system: S. epidermis
Procedure: as §2, §3

S. maltophilia = test system: S. maltophilia
Procedure: as §2, §3

S. aureus Newman = test system: S. aureus Newman
Procedure: as §2, §3

P. aeruginosa PA14 = test system: P. aeruginosa PA14
Procedure: as §2, §3

P. aeruginosa PAO1 [2] = test: Transmission electron microscopy (TEM); format: cell-based, Pseudomonas aeruginosa; details: P. aeruginosa PAO1, 10 × MIC, […] MH at pH 8.5, 2 h at 37 °C
Procedure: Scale bars are 500 nm and 1 μm. Red arrows: membrane perturbations. Blue arrows: intracellular aggregation. Yellow arrows: empty area within the cell.
as §1

K. pneumoniae OXA-48 = test system: K. pneumoniae OXA-48
Procedure: as §2
(§4) To each well was finally added 4 μL of the diluted bacterial suspension (see above), corresponding to approximately 5 × 10^5 CFU. For each test, two columns of the plate were kept for sterility control (medium only), growth control (medium with bacterial inoculum, no compound). The positive control, Polymyxin B (starting with a concentration of 16 μg/mL) in MH medium with bacterial inocula, was introduced in the two lines of the plate. The plates were incubated at 37 °C for ca. 18 h under static conditions. Next, 15 μL of 3-(4,5-dimethylthiazol-2-yl)-2,5-diphenyltetrazolium bromide (MTT)[73] (1 mg/mL in sterilized MilliQ deionized water) were added to each well, and the plates were incubated for 20–30 min at room temperature. The minimal inhibitory concentration (MIC) was defined as the lowest concentration of the compound that inhibits the visible growth of the tested bacteria (yellow) with the unaided eye.

A. baumannii ATCC19606 = details: Table S2
Procedure: as §2, §4

E. cloacae = test system: E. cloacae
Procedure: as §2, §4

P. aeruginosa PAO1 [3] = test system: P. aeruginosa PAO1
Procedure: as §2, §4

E. coli W3110 = test system: E. coli W3110
Procedure: as §2, §4

K. pneumoniae NCTC418 = details: Table S2
Procedure: as §2, §4

PA14 4.18 (pmrB) = test system: PA14 4.18 (pmrB)
Procedure: as §2, §4

S. aureus COL (MRSA) = test system: S. aureus COL (MRSA)
Procedure: as §2, §4

PA14 2P4 (pmrB) = details: Table S3; […] MH at pH 8.5
Procedure: as §2, §4

[4] = test system: ZEM9A (clinical MDR P. aeruginosa isolate)
Procedure: as §2, §4

[5] = test system: ZEM-1A (clinical MDR P. aeruginosa isolate)
Procedure: as §2, §4

PA14 4.13 (phoQ) = test system: PA14 4.13 (phoQ)
Procedure: as §2, §4

[6] = test system: human red blood cells (hRBC); test: Minimum hemolytic concentration (MHC); format: cell-based; details: hRBC, 10 mM phosphate buffer, 150 mM NaCl, pH 7.4, 25 °C, 4 h
Source text: We also measured minimal hemolysis concentrations (MHC) on human red blood cells by serial 2-fold dilution as an indication of toxicity against eukaryotic cells (Table 1).

**Q.** Which results are given for Polymyxin B [PMB, reference compound]?
**A.** Bacteria count after treatment at 10x MIC and 2 h of incubation at 37 °C (% of control) (P. aeruginosa PAO1 [1]): 1 % of control; MIC B. cenocepacia (B. cenocepacia): >16 µg/mL; MIC S. epidermis (S. epidermis; MH pH 7.4, 16–20 h at 37 °C): >16 µg/mL; MIC S. epidermis (S. epidermis; Table S3, […] MH at pH 8.5): 2 µg/mL; MIC S. maltophilia (S. maltophilia; MH pH 7.4, 16–20 h at 37 °C): 0.5 µg/mL; MIC S. maltophilia (S. maltophilia; Table S3, […] MH at pH 8.5): 2 µg/mL; MIC S. aureus Newman (S. aureus Newman; MH pH 7.4, 16–20 h at 37 °C): >16 µg/mL; MIC S. aureus Newman (S. aureus Newman; Table S3, […] MH at pH 8.5): 2 µg/mL; MIC P. aeruginosa PA14 (P. aeruginosa PA14; MH pH 7.4, 16–20 h at 37 °C): <0.13 µg/mL; MIC P. aeruginosa PA14 (P. aeruginosa PA14; Table S3, […] MH at pH 8.5, 16-20 hours at 37 °C): 0.25 µg/mL; TEM micrographs, changes in treated bacteria (P. aeruginosa PAO1 [2]): blebbing and a disrupted outer membrane; MIC K. pneumoniae OXA-48 (K. pneumoniae OXA-48; MH pH 7.4, 16–20 h at 37 °C): 1 to 2 µg/mL; MIC K. pneumoniae OXA-48 (K. pneumoniae OXA-48; Table S3, […] MH at pH 8.5): 1 to 2 µg/mL; MIC A. baumannii ATCC19606 […] 7.4 (A. baumannii ATCC19606; […] MH, pH 7.4): 0.5 µg/mL; MIC A. baumannii ATCC19606 […] 8.5 (A. baumannii ATCC19606; […] MH, pH 8.5): 0.25 µg/mL; MIC A. baumannii ATCC19606 Full MH 7.4 (A. baumannii ATCC19606; full MH, pH 7.4): 0.25 µg/mL; MIC A. baumannii ATCC19606 Full MH 8.5 (A. baumannii ATCC19606; full MH, pH 8.5): 0.25 µg/mL; MIC E. cloacae (E. cloacae; MH pH 7.4, 16–20 h at 37 °C): 0.5 to 1 µg/mL; MIC E. cloacae (E. cloacae; Table S3, […] MH at pH 8.5): 1 to 2 µg/mL; Antibacterial activity as a function of NaCl concentration (P. aeruginosa PAO1 [3]; P. aeruginosa PAO1, […] MH at pH 8.5, up to 300 mM NaCl): less affected; MIC P. aeruginosa PAO1 […] 7.4 (P. aeruginosa PAO1 [3]; Table S2, […] MH, pH 7.4): 0.5 µg/mL; MIC P. aeruginosa PAO1 […] 8.5 (P. aeruginosa PAO1 [3]; Table S2, […] MH, pH 8.5): 0.5 µg/mL; MIC P. aeruginosa PAO1 Full MH 7.4 (P. aeruginosa PAO1 [3]; Table S2, full MH, pH 7.4): 0.5 µg/mL; MIC P. aeruginosa PAO1 Full MH 8.5 (P. aeruginosa PAO1 [3]; Table S2, full MH, pH 8.5): 0.25 µg/mL; MIC P. aeruginosa PAO1 […] (P. aeruginosa PAO1 [3]; diluted MH ([…] MH, pH 8.5) per Table 1 footnote b, 16–20 h at 37 °C): 0.5 µg/mL; Antibacterial activity as a function of NaCl concentration (E. coli W3110; E. coli W3110, […] MH at pH 8.5, up to 300 mM NaCl): less affected; MIC E. coli W3110 […] 7.4 (E. coli W3110; Table S2, […] MH, pH 7.4): 0.5 µg/mL; MIC E. coli W3110 […] 8.5 (E. coli W3110; Table S2, […] MH, pH 8.5): 0.25 µg/mL; MIC E. coli W3110 Full MH 7.4 (E. coli W3110; Table S2, full MH, pH 7.4): 0.25 µg/mL; MIC E. coli W3110 Full MH 8.5 (E. coli W3110; Table S2, full MH, pH 8.5): < 0.1 µg/mL; MIC K. pneumoniae NCTC418 […] 7.4 (K. pneumoniae NCTC418; […] MH, pH 7.4): 0.5 µg/mL; MIC K. pneumoniae NCTC418 […] 8.5 (K. pneumoniae NCTC418; […] MH, pH 8.5): 0.5 µg/mL; MIC K. pneumoniae NCTC418 Full MH 7.4 (K. pneumoniae NCTC418; full MH, pH 7.4): 0.25 µg/mL; MIC K. pneumoniae NCTC418 Full MH 8.5 (K. pneumoniae NCTC418; full MH, pH 8.5): 0.25 µg/mL; MIC PA14 4.18 (pmrB) (PA14 4.18 (pmrB); MH pH 7.4, 16–20 h at 37 °C): 1 µg/mL; MIC P. aeruginosa PA14 4.18 (PA14 4.18 (pmrB); Table S3, […] MH at pH 8.5): 0.25 µg/mL; MIC S. aureus COL (MRSA) […] 7.4 (S. aureus COL (MRSA); Table S2, […] MH, pH 7.4): 8 µg/mL; MIC S. aureus COL (MRSA) […] 8.5 (S. aureus COL (MRSA); Table S2, […] MH, pH 8.5): 1 µg/mL; MIC S. aureus COL (MRSA) Full MH 7.4 (S. aureus COL (MRSA); Table S2, full MH, pH 7.4): > 64 µg/mL; MIC S. aureus COL (MRSA) Full MH 8.5 (S. aureus COL (MRSA); Table S2, full MH, pH 8.5): 2 µg/mL; MIC S. aureus COL (MRSA) Full (S. aureus COL (MRSA); full MH, pH 7.4, 16–20 h at 37 °C): >32 µg/mL; MIC P. aeruginosa PA14 2P4 (PA14 2P4 (pmrB)): 1 µg/mL; MIC ZEM9A ([4]; MH pH 7.4, 16–20 h at 37 °C): 2 µg/mL; MIC P. aeruginosa ZEM9A ([4]; Table S3, […] MH at pH 8.5): 1 to 2 µg/mL; MIC ZEM-1A ([5]; MH pH 7.4, 16–20 h at 37 °C): <0.13 µg/mL; MIC P. aeruginosa ZEM-1A ([5]; Table S3, […] MH at pH 8.5): 1 µg/mL; MIC PA14 4.13 (phoQ) (PA14 4.13 (phoQ); MH pH 7.4, 16–20 h at 37 °C): 0.25 µg/mL; MIC P. aeruginosa PA14 4.13 (PA14 4.13 (phoQ); Table S3, […] MH at pH 8.5): 0.5 µg/mL; MHC ([6]; Table S2): > 2000 µg/mL; MHC [6]: >2000 µg/mL
